Measurements as given in patent US9580444B2, “Polycyclic pyrazolinone derivative and herbicide comprising same as effective component thereof” (priority 2013, dated 2017).

What was measured:
Type in all cases: in vivo
[1] = test system: Cyperus difformis (smallflower umbrella plant); test: Test Example-1: herbicidal effect by a treatment before weeds are generated under submerged conditions; conditions: 500 g a.i/ha, pre-emergence treatment, about 15 days after treatment, score 0-5
Procedure, shortened: (§1)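 Flooded paddy-soil cups, seeded and treated by submersion application on sowing day; rated 0–5 ~15 d later.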

[2] = test system: Echinochloa oryzicola (barnyard grass); test: as above; conditions: 500 g a.i/ha, pre-emergence treatment, about 15 days after treatment, score 0-5
Procedure, shortened: as §1

[3] = test system: Eleocharis acicularis (needle spikerush); test: as above; conditions: 500 g a.i/ha, pre-emergence treatment, about 15 days after treatment, score 0-5
Procedure, shortened: as §1

[4] = test system: Monochoria vaginalis (monochoria); test: as above; conditions: 500 g a.i/ha, pre-emergence treatment, about 15 days after treatment, score 0-5
Procedure, shortened: as §1

[5] = test system: Scirpus juncoides (bulrush); test: as above; conditions: 500 g a.i/ha, pre-emergence treatment, about 15 days after treatment, score 0-5
Procedure, shortened: as §1

[6] = test system: other annual broad leaf weeds (Lindernia procumbens, Rotala indica, Elatine triandra); test: as above; conditions: 500 g a.i/ha, pre-emergence treatment, about 15 days after treatment, score 0-5
Procedure, shortened: as §1

[7] = test system: Amaranthus viridis (green amaranthus); test: Test Example-2: herbicidal effect by a soil treatment before weeds are generated under upland field conditions; conditions: application amount 500 g a.i/ha, soil spray treatment before weeds are generated, about 21 days after the treatment, score 0 to 5
Procedure, shortened: (§2)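 Pre-emergence soil treatment: seeds sown in upland soil and covered with about 0.5 cm soil were sprayed the next day with diluted wettable powder or emulsifiable concentrate at a predetermined dosage. Weed control and corn injury were scored on a 0–5 scale about 21 days after treatment.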

[8] = test system: Chenopodium album (common lambsquarters); test: as above; conditions: application amount 500 g a.i/ha, soil spray treatment before weeds are generated, about 21 days after the treatment, score 0 to 5
Procedure, shortened: as §2

corn [9] = test: Test Example-2: phytotoxicity by a soil treatment before weeds are generated under upland field conditions; conditions: application amount 500 g a.i/ha, soil spray treatment before weeds are generated, about 21 days after the treatment, score 0 to 5
Procedure, shortened: as §2

[10] = test system: Abutilon theophrasti (velvetleaf); test: Test Example-3: herbicidal effect by a treatment before weeds are generated under upland field conditions; conditions: upland soil treatment before emergence, about 21 days after treatment, score 0-5
Text: (§3) Using the formulation prepared according to the methods described above, the herbicidal effect of the bicyclic pyrazolinone derivative of the invention according to the methods shown in Test Examples below was examined. The herbicidal effect with respect to the test weeds or the phytotoxicity with respect to the test crops was examined according to the following criteria, and evaluated in six stage scores of 0 to 5. A vat having an area of 81 cm^2 and a depth of 3.5 cm was filled with upland soil, then, seeds of Ipomoea purpurea (tall morning glory), Amaranthus viridis (green amaranthus), Abutilon theophrasti (velvetleaf), Chenopodium album (common lambsquarters), and corn were seeded thereto, and the seeds were covered with soil of about 0.5 cm. Next day, a wettable powder or an emulsifiable concentrate of the compound of the present invention prepared according to Formulation Example was diluted, and a spray treatment was uniformly performed on the covered oil so as to be a predetermined dosage. The herbicidal effect with respect to the test weeds and the phytotoxicity with respect to corn about 21 days after the treatment were evaluated according to the evaluation criteria in six stages of 0 to 5 described above.

[11] = test system: Amaranthus viridis (green amaranthus); test: as above; conditions: upland soil treatment before emergence, about 21 days after treatment, score 0-5
Text: as §3

[12] = test system: Chenopodium album (common lambsquarters); test: as above; conditions: upland soil treatment before emergence, about 21 days after treatment, score 0-5
Text: as §3

[13] = test system: Ipomoea purpurea (tall morning glory); test: as above; conditions: upland soil treatment before emergence, about 21 days after treatment, score 0-5
Text: as §3

corn [14] = test: Test Example-3: phytotoxicity by a treatment before weeds are generated under upland field conditions; conditions: upland soil treatment before emergence, about 21 days after treatment, score 0-5
Text: as §3

[15] = test system: Abutilon theophrasti (velvetleaf); test: Test Example-4: herbicidal effect by a foliage treatment after weeds are generated under upland field conditions; conditions: 500 g a.i/ha, foliage treatment after emergence, about 14 days after treatment, score 0-5
Procedure, shortened: (§4)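 Compounds were applied as diluted formulations by foliar spray (4000 L water/ha) to 14-day-old plants grown in upland soil. Weed control and corn phytotoxicity were each graded 0 to 5 around 14 days after spraying.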

[16] = test system: Amaranthus viridis (green amaranthus); test: as above; conditions: 500 g a.i/ha, foliage treatment after emergence, about 14 days after treatment, score 0-5
Procedure, shortened: as §4

[17] = test system: Chenopodium album (common lambsquarters); test: as above; conditions: 500 g a.i/ha, foliage treatment after emergence, about 14 days after treatment, score 0-5
Procedure, shortened: as §4

corn [18] = test: Test Example-4: phytotoxicity by a foliage treatment after weeds are generated under upland field conditions; conditions: 500 g a.i/ha, foliage treatment after emergence, about 14 days after treatment, score 0-5
Procedure, shortened: as §4

[19] = test system: Abutilon theophrasti (velvetleaf); test: Test Example-5: herbicidal effect by a foliage treatment after weeds are generated under upland field conditions; conditions: foliage treatment after emergence, about 14 days after treatment, score 0-5
Text: as §3, with “While watering was suitably performed on there, the seeds were grown for 14 days. A” for “Next day, a”, “foliage portion of the plant” for “covered oil”, “dosage in the amount of water of 4000 L per hectare.” for “dosage.”, “14” for “21”

[20] = test system: Amaranthus viridis (green amaranthus); test: as above; conditions: foliage treatment after emergence, about 14 days after treatment, score 0-5
Text: as §3, with “While watering was suitably performed on there, the seeds were grown for 14 days. A” for “Next day, a”, “foliage portion of the plant” for “covered oil”, “dosage in the amount of water of 4000 L per hectare.” for “dosage.”, “14” for “21”

[21] = test system: Chenopodium album (common lambsquarters); test: as above; conditions: foliage treatment after emergence, about 14 days after treatment, score 0-5
Text: as §3, with “While watering was suitably performed on there, the seeds were grown for 14 days. A” for “Next day, a”, “foliage portion of the plant” for “covered oil”, “dosage in the amount of water of 4000 L per hectare.” for “dosage.”, “14” for “21”

[22] = test system: Ipomoea purpurea (tall morning glory); test: as above; conditions: foliage treatment after emergence, about 14 days after treatment, score 0-5
Text: as §3, with “While watering was suitably performed on there, the seeds were grown for 14 days. A” for “Next day, a”, “foliage portion of the plant” for “covered oil”, “dosage in the amount of water of 4000 L per hectare.” for “dosage.”, “14” for “21”

corn [23] = test: Test Example-5: phytotoxicity by a foliage treatment after weeds are generated under upland field conditions; conditions: foliage treatment after emergence, about 14 days after treatment, score 0-5
Text: as §3, with “While watering was suitably performed on there, the seeds were grown for 14 days. A” for “Next day, a”, “foliage portion of the plant” for “covered oil”, “dosage in the amount of water of 4000 L per hectare.” for “dosage.”, “14” for “21”

Structure (SMILES) | Herbicidal effect Cyperus difformis [1] | Herbicidal effect Echinochloa oryzicola [2] | Herbicidal effect Eleocharis acicularis [3] | Herbicidal effect Monochoria vaginalis [4] | Herbicidal effect Scirpus juncoides [5] | Herbicidal effect Broadleaf weed [6] | Herbicidal effect Amaranthus viridis [7] | Herbicidal effect Chenopodium album [8] | Phytotoxicity Corn (corn [9]) | Herbicidal effect Abutilon theophrast ([10]; 50 g a.i/ha) | Herbicidal effect Amaranthus viridis ([11]; 50 g a.i/ha) | Herbicidal effect Chenopodium album ([12]; 50 g a.i/ha) | Herbicidal effect Ipomoea purpurea ([13]; 50 g a.i/ha) | Phytotoxicity Corn (corn [14]; 50 g a.i/ha) | Herbicidal effect Abutilon theophrast [15] | Herbicidal effect Amaranthus viridis [16] | Herbicidal effect Chenopodium album [17] | Phytotoxicity Corn (corn [18]) | Herbicidal effect Abutilon theophrasti ([19]; 12.5 g a.i/ha) | Herbicidal effect Amaranthus viridis ([20]; 12.5 g a.i/ha) | also measured
C#CCOc1cc(-c2c(Cl)n3n(c2=O)CCCC3)c(F)cc1Cl [Example 1-238] | 5 (Herbicidal effect/phytotoxicity was 90% or greater) | 5 (Herbicidal effect/phytotoxicity was 90% or greater) | 5 (Herbicidal effect/phytotoxicity was 90% or greater) | 5 (Herbicidal effect/phytotoxicity was 90% or greater) | 5 (Herbicidal effect/phytotoxicity was 90% or greater) | 5 (Herbicidal effect/phytotoxicity was 90% or greater) | 5 (Herbicidal effect/phytotoxicity was 90% or greater) | 5 (Herbicidal effect/phytotoxicity was 90% or greater) | 1 (Herbicidal effect/phytotoxicity was 10% to 30%) | 5 (Herbicidal effect/phytotoxicity was 90% or greater) | 4 (Herbicidal effect/phytotoxicity was 70% to 90%) | 5 (Herbicidal effect/phytotoxicity was 90% or greater) | 5 (Herbicidal effect/phytotoxicity was 90% or greater) | 0 (Herbicidal effect/phytotoxicity was 0% to 10%) | 5 (Herbicidal effect/phytotoxicity was 90% or greater) | 5 (Herbicidal effect/phytotoxicity was 90% or greater) | 5 (Herbicidal effect/phytotoxicity was 90% or greater) | 3 (Herbicidal effect/phytotoxicity was 50% to 70%) | 5 (Herbicidal effect/phytotoxicity was 90% or greater) | 5 (Herbicidal effect/phytotoxicity was 90% or greater) | Herbicidal effect Abutilon theophrast ([10]; 100 g a.i/ha): 5 (Herbicidal effect/phytotoxicity was 90% or greater); Herbicidal effect Amaranthus viridis ([11]; 100 g a.i/ha): 5 (Herbicidal effect/phytotoxicity was 90% or greater); Herbicidal effect Chenopodium album ([12]; 100 g a.i/ha): 5 (Herbicidal effect/phytotoxicity was 90% or greater); Herbicidal effect Ipomoea purpurea ([13]; 100 g a.i/ha): 5 (Herbicidal effect/phytotoxicity was 90% or greater); Phytotoxicity Corn (corn [14]; 100 g a.i/ha): 0 (Herbicidal effect/phytotoxicity was 0% to 10%); Herbicidal effect Abutilon theophrasti ([19]; 25 g a.i/ha): 5 (Herbicidal effect/phytotoxicity was 90% or greater); Herbicidal effect Amaranthus viridis ([20]; 25 g a.i/ha): 5 (Herbicidal effect/phytotoxicity was 90% or greater); Herbicidal effect Chenopodium album ([21]; 12.5 g a.i/ha): 5 (Herbicidal effect/phytotoxicity was 90% or greater); Herbicidal effect Chenopodium album ([21]; 25 g a.i/ha): 5 (Herbicidal effect/phytotoxicity was 90% or greater); Herbicidal effect Ipomoea purpurea ([22]; 12.5 g a.i/ha): 5 (Herbicidal effect/phytotoxicity was 90% or greater); Herbicidal effect Ipomoea purpurea ([22]; 25 g a.i/ha): 5 (Herbicidal effect/phytotoxicity was 90% or greater); Phytotoxicity Corn (corn [23]; 12.5 g a.i/ha): 0 (Herbicidal effect/phytotoxicity was 0% to 10%); Phytotoxicity Corn (corn [23]; 25 g a.i/ha): 0 (Herbicidal effect/phytotoxicity was 0% to 10%)
COC(=O)C=C(COc1cc(-c2c(Cl)n3n(c2=O)CCOCC3)c(F)cc1Cl)OC (mixture of isomers) [Example 2-3] | – | – | – | – | – | – | – | – | – | 5 (Herbicidal effect/phytotoxicity was 90% or greater) | 5 (Herbicidal effect/phytotoxicity was 90% or greater) | 4 (Herbicidal effect/phytotoxicity was 70% to 90%) | 2 (Herbicidal effect/phytotoxicity was 30% to 50%) | 0 (Herbicidal effect/phytotoxicity was 0% to 10%) | 5 (Herbicidal effect/phytotoxicity was 90% or greater) | 5 (Herbicidal effect/phytotoxicity was 90% or greater) | 5 (Herbicidal effect/phytotoxicity was 90% or greater) | 1 (Herbicidal effect/phytotoxicity was 10% to 30%) | 5 (Herbicidal effect/phytotoxicity was 90% or greater) | 5 (Herbicidal effect/phytotoxicity was 90% or greater) | Herbicidal effect Chenopodium album ([21]; 12.5 g a.i/ha): 5 (Herbicidal effect/phytotoxicity was 90% or greater); Herbicidal effect Ipomoea purpurea ([22]; 12.5 g a.i/ha): 5 (Herbicidal effect/phytotoxicity was 90% or greater); Phytotoxicity Corn (corn [23]; 12.5 g a.i/ha): 0 (Herbicidal effect/phytotoxicity was 0% to 10%)
C#CC(C)Oc1cc(-c2c(Cl)n3n(c2=O)CCCC3)c(F)cc1Cl (stereo not drawn) [Example 1-243] | 5 (Herbicidal effect/phytotoxicity was 90% or greater) | 5 (Herbicidal effect/phytotoxicity was 90% or greater) | 5 (Herbicidal effect/phytotoxicity was 90% or greater) | 5 (Herbicidal effect/phytotoxicity was 90% or greater) | 5 (Herbicidal effect/phytotoxicity was 90% or greater) | 5 (Herbicidal effect/phytotoxicity was 90% or greater) | 5 (Herbicidal effect/phytotoxicity was 90% or greater) | 5 (Herbicidal effect/phytotoxicity was 90% or greater) | 0 (Herbicidal effect/phytotoxicity was 0% to 10%) | – | – | – | – | – | 5 (Herbicidal effect/phytotoxicity was 90% or greater) | 5 (Herbicidal effect/phytotoxicity was 90% or greater) | 5 (Herbicidal effect/phytotoxicity was 90% or greater) | 1 (Herbicidal effect/phytotoxicity was 10% to 30%) | – | – | –
